pIC50: −log10 of the molar value. Read-outs that look alike come from different tables or passages of the source.
Experiments:
Assay type in all cases: biochemical
[1] = system: mouse LYPLA1/2 (quantified together); experiment: IC50 by gel-based competitive ABPP in vitro, mouse brain membrane proteome
Method: Assay Overview: The purpose of this assay was to determine IC50 values of powder samples of test compounds for enzyme of interest activity, and anti-targets in a complex proteomic lysate using a gel-based competitive ABPP assay. In this assay, a complex proteome was incubated with test compound followed by reaction with FP-Rh and SDS-PAGE analysis as described above.
Protocol Summary: Soluble HeLa cell proteome (50 μL reaction volume, 1 mg/mL in DPBS) or mouse brain membrane proteome (50 μL reaction volume, 1 mg/mL in DPBS) was treated with varying concentrations of test compound (1 μL of a 50× stock in DMSO) for 30 minutes at 37° C. FP-Rh (1 μL of 50× stock in DMSO) was added to a final concentration of 2 μM. The reaction was incubated for 30 minutes at 25° C., quenched with 16 μL 4×SDS-PAGE loading buffer (reducing), separated by SDS-PAGE and visualized by in-gel fluorescent scanning. The percentage activity remaining was determined by measuring the integrated optical density of the enzymes of interest, and anti-target bands relative to a DMSO-only (no compound) control. IC50 values were determined from dose-response curves from three replicates at each inhibitor concentration: 1, 10, 100, 1000, 10000 nM and 0.01, 0.1, 1, 10, 100, 1000, 10000, 50000, and 100000 nM.

mABHD3 = molecular target: T1, mABHD3 (Mus musculus, UniProt Q91ZH7); experiment: Gel-based competitive ABPP, recombinant enzyme in transfected HEK293T cell lysates
T1 construct: expressed in transfected cells; host or cells: HEK293T, transient transfection, pCMV-Sport6; lysate used in vitro
T1 sequence (Q91ZH7 1-411): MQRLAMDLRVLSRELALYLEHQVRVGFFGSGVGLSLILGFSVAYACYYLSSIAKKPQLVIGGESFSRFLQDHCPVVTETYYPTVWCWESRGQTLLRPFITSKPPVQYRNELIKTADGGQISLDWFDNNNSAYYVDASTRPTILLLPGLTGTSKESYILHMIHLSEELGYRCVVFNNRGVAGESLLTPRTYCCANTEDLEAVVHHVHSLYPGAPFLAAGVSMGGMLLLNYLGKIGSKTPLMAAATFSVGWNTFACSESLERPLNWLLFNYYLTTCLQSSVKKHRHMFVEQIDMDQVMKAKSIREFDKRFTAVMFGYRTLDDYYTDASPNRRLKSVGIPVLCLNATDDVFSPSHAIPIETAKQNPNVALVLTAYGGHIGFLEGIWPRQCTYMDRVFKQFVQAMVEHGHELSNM
Method: HEK293T cells were seeded at 2×10^5 per well on 6 well plates and grown for 48 h. They were then transfected with mABHD3 (pCMV-Sport6), hABHD4 (pcDNA3.1/myc-his), hPPT1 (pCMV6-XL5), or hPPT1 S115A (pCMV6-XL5), by incubating 0.5 μg of DNA with 3 μL of PEI MAX (1 mg/mL, Polysciences, Inc) in serum-free DMEM for 30 min, then adding them to cells. After 48 h cells were either treated with compound in situ, as described above, or harvested for in vitro studies. The […] PPT1 mutation was introduced using QuikChange II Site Directed Mutagenesis Kit (Agilent) with the following primers: […]
Human ABHD3 and ABHD4 were recombinantly expressed by transient transfection in HEK293T cells, and the cell lysates were combined to provide a convenient assay for monitor inhibition of both enzymes by gel-based ABPP (see FIG. 8A).

PPT1 = molecular target: T2, PPT1 (Homo sapiens, UniProt P50897); experiment: PPT1 substrate assay in vitro, hPPT1-transfected HEK293T cell lysates; design: expressed in transfected cells; host or cells: HEK293T; conditions: for activity against PPT1 in situ and in vitro: in words, figures in the 9th table
T2 sequence (P50897 28-306): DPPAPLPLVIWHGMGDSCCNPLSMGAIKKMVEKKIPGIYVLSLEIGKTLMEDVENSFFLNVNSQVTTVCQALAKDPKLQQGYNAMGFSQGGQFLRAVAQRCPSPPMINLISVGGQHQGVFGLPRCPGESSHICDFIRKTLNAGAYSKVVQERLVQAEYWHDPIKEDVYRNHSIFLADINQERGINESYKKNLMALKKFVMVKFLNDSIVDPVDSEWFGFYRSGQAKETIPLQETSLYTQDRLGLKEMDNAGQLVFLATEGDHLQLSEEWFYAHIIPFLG
Method: PPT1 activity was assessed in vitro using a substrate assay adapted from previous studies (van Diggelen et al., Molecular genetics and metabolism 66, 240-244, 1999). Lysates from HEK293T cells transfected with an empty vector, or human PPT1 under a CMV promoter were adjusted to 1 mg/ml in PBS (25 μl), and then combined 1:1 with Mcllvain's phosphate/citrate buffer containing 0.375% (v/v) Triton-X 100 and 15 mM DTT (pH 5.0). This sample was pre-treated with inhibitor or DMSO for 30 minutes at 37° C., and 10 μl (5 μg protein) was used in the substrate assay as follows: Samples were diluted in a black 96-well plate (half-area) with 20 μl McIlvain's phosphate/citrate buffer (pH 5.0) containing 0.375% TX-100 and 15 mM DTT, as well as 0.64 mM MU-6S-Palm-PD-Glc and 0.1 U sweet almond glucosidase (Sigma). The reactions were incubated at 37° C. for 1 hour, quenched with 120 μl sodium bicarbonate buffer (pH 10.0), and hydrolysis by 4-MU fluorescence measured by excitement at […] and emission intensity at […]. 16 μg protein was used for analysis of native PC3 cells.
Compound 26 was then tested to see if it inhibited PPT1 activity using a substrate assay. Endogenous substrates for PPT1 remain poorly characterized, but this enzyme was assayed with a fluorogenic substrate 4-methylumbelliferyl-6-thio-palmitate-βD-glucopyranoside (MU-6S-Palm-βD-Glc). In this assay, PPT1 hydrolyzes the substrate's palmitoyl thioester bond, and exogenous sweet almond β-glucosidase deglycosylates and frees the fluorophore, 4-methylumbelliferone (4-MU), which is measured to assess PPT1 activity.

[2] = mouse LYPLA1/2, in vitro, read-out: mLYPLA1/2 in vitro potency (IC50)
[3] = transfected HEK293T lysates, read-out: mABHD3 in vitro potency (IC50)
[4] = cell lysates, pH 5.0, MU-6S-Palm-βD-Glc substrate, 95% confidence intervals in parentheses, read-out: IC50 for inhibition of human PPT1, in vitro (substrate)

Work on `O=C(ON1C(=O)[C@@H]2CN(C(=O)N3CCOCC3)CCN2C1=O)N1CCC(CCc2ccc(Cl)cc2)CC1` [Compound 50, (S)-7-(morpholine-4-carbonyl)-1,3-dioxohexahydroimidazo[1,5-a]pyrazin-2(3H)-yl 4-(4-chloro-phenethyl)piperidine-1-carboxylate] yielded a pIC50 [1, 2] of 6.93.

Compound `COc1ccc(N2CCN(C(=O)ON3C(=O)C4CN(Cc5ccc(Oc6ccccc6)cc5)CCN4C3=O)CC2)cc1` (stereo not drawn) [Compound 37, 1,3-dioxo-7-(4-phenoxybenzyl)hexahydroimidazo[1,5-a]pyrazin-2(3H)-yl 4-(4-methoxyphenyl)piperazine-1-carboxylate] has a pIC50 (mABHD3; [3]) of 5.12.

`COc1ccc(N2CCN(C(=O)ON3C(=O)C4CN(CC5CCN(Cc6ccccc6)CC5)CCN4C3=O)CC2)cc1` (stereo not drawn) [Compound 26, 7-((1-benzylpiperidin-4-yl)methyl)-1,3-dioxohexahydroimidazo[1,5-a]pyrazin-2(3H)-yl 4-(4-methoxyphenyl)piperazine-1-carboxylate] showed a pIC50 (PPT1; transfected lysates, pH 5.0, MU-6S-Palm-βD-Glc, read-out: PPT1 IC50, substrate assay) of 5.19.

Compound `O=C(ON1C(=O)[C@H]2CN(C(=O)N3CCOCC3)CCN2C1=O)N1CCC(CCc2ccc(Cl)cc2)CC1` [Compound 51, (R)-7-(morpholine-4-carbonyl)-1,3-dioxohexahydroimidazo[1,5-a]pyrazin-2(3H)-yl 4-(4-chloro-phenethyl)piperidine-1-carboxylate] has a pIC50 [1, 2] of 7.01.

`O=C(ON1C(=O)C2CN(C(=O)N3CCOCC3)CCN2C1=O)N1CCC(CCc2ccc(Cl)cc2)CC1` (stereo not drawn) [Compound 1, 7-(morpholine-4-carbonyl)-1,3-dioxohexahydroimidazo[1,5-a]pyrazin-2(3H)-yl 4-(4-chloro-phenethyl)piperidine-1-carboxylate] was tested, and the pIC50 ([1]; LYPLA1/2 quantified together, mouse brain membrane proteome, read-out: mouse LYPLA1/2 collective IC50 in vitro) was 6.81, the “potency and selectivity for LYPLA1/2, concentration-dependent profiling” value ([1]; mouse brain membrane SHs, FIG. 7B) was “good potency and selectivity” and the pIC50 (PPT1; [4]) was 4.82. For the same compound, the “activity against PPT1 in situ and in vitro” value (PPT1) was “did, however, inhibit PPT1 activity”.

With `O=C(ON1C(=O)C2CN(Cc3ccc(Oc4ccccc4)cc3)CCN2C1=O)N1CCOCC1` (stereo not drawn) [Compound 34, 1,3-dioxo-7-(4-phenoxybenzyl)hexahydroimidazo[1,5-a]pyrazin-2(3H)-yl morpholine-4-carboxylate] the pIC50 (mABHD3; [3]) was < 5.00, the pIC50 (PPT1; [4]) was < 4.30 and the “activity against PPT1 in situ and in vitro” value (PPT1) was “limited activity against PPT1”.

For `COc1ccc(N2CCN(C(=O)ON3C(=O)[C@@H]4CN(CC5CCN(Cc6ccccc6)CC5)CCN4C3=O)CC2)cc1` [Compound 42, (S)-7-((1-benzylpiperidin-4-yl)methyl)-1,3-dioxo-hexahydroimidazo[1,5-a]pyrazin-2(3H)-yl 4-(4-methoxyphenyl)piperazine-1-carboxylate], the pIC50 [1, 2] was 4.53 and the pIC50 (PPT1; human PPT1, in vitro, method not stated at Table 5, read-out: hPPT1 in vitro potency (IC50)) was 5.40.

For `O=C(ON1C(=O)C2CN(Cc3ccc(Oc4ccccc4)cc3)CCN2C1=O)N1CCC(c2ccccc2)CC1` (stereo not drawn) [Compound 38, 1,3-dioxo-7-(4-phenoxybenzyl)hexahydroimidazo[1,5-a]pyrazin-2(3H)-yl 4-phenylpiperidine-1-carboxylate], the pIC50 (mABHD3; combined HEK293T lysates, gel-based ABPP, read-out: ABHD3 IC50) was 6.89 and the pIC50 (mABHD3; [3]) was 7.00.
